Reference: the CheMixHub ionic liquid set
± gives the uncertainty stated by the source.

Experiment: xn = mol fraction of the nth substance listed

SMILES: CC[n+]1ccn(C)c1.F[B-](F)(F)F + CC(=O)N(C)C
- electrical conductivity (283.15 K, 100 kPa, x1 = 0.0006798): 0.03925 ± 2e-05 S/m
- electrical conductivity (288.15 K, 100 kPa, x1 = 0.001378): 0.07985 ± 3.9e-05 S/m
- electrical conductivity (298.15 K, 100 kPa, x1 = 0.0004953): 0.03615 ± 1.7e-05 S/m
- viscosity (303.15 K, 101 kPa, x2 = 0): 28 ± 0.45 mPa·s
- viscosity (303.15 K, 101 kPa, x2 = 0.1998): 18.05 ± 0.27 mPa·s
- viscosity (303.15 K, 101 kPa, x2 = 0.6): 5.678 ± 0.077 mPa·s
- viscosity (303.15 K, 101 kPa, x2 = 0.6996): 3.833 ± 0.051 mPa·s
- viscosity (303.15 K, 101 kPa, x2 = 0.8001): 2.499 ± 0.033 mPa·s
- electrical conductivity (313.15 K, 100 kPa, x1 = 0.0006798): 0.05765 ± 2.6e-05 S/m
- viscosity (313.15 K, 101 kPa, x2 = 0.5005): 6.172 ± 0.086 mPa·s
- viscosity (313.15 K, 101 kPa, x2 = 0.6): 4.493 ± 0.061 mPa·s
- viscosity (323.15 K, 101 kPa, x2 = 0): 15.35 ± 0.25 mPa·s
- viscosity (323.15 K, 101 kPa, x2 = 0.2995): 8.36 ± 0.12 mPa·s
- viscosity (333.15 K, 101 kPa, x2 = 0.2995): 6.91 ± 0.1 mPa·s
- viscosity (333.15 K, 101 kPa, x2 = 0.3989): 5.375 ± 0.077 mPa·s

SMILES: CCS(=O)(=O)[O-].[NH4+] + CC(=O)[O-].CC[n+]1ccn(C)c1
- electrical conductivity (313.15 K, 101 kPa, x1 = 0.1701): 0.38 ± 0.0076 S/m
- viscosity (313.15 K, 101 kPa, x1 = 0.1701): 112.1 ± 7.4 mPa·s
- electrical conductivity (318.15 K, 101 kPa, x1 = 0.05): 0.649 ± 0.013 S/m
- viscosity (318.15 K, 101 kPa, x1 = 0.05): 51.8 ± 3.4 mPa·s
- electrical conductivity (323.15 K, 101 kPa, x1 = 0.0999): 0.669 ± 0.013 S/m
- viscosity (323.15 K, 101 kPa, x1 = 0.0999): 50.7 ± 3.3 mPa·s
- electrical conductivity (323.15 K, 101 kPa, x1 = 0.1701): 0.588 ± 0.012 S/m
- viscosity (323.15 K, 101 kPa, x1 = 0.1701): 65.1 ± 4.2 mPa·s

SMILES: OC[C@@H](O)[C@@H](O)[C@H](O)[C@@H](O)CO + CC(=O)[O-].CC[n+]1ccn(C)c1
- viscosity (303.15 K, 100 kPa, x1 = 0.1894): 283 ± 14 mPa·s
- viscosity (303.15 K, 100 kPa, x1 = 0.5836): 2256 ± 140 mPa·s

SMILES: CC[n+]1ccn(C)c1.F[B-](F)(F)F + CC(=O)c1ccccc1
- viscosity (293.15 K, 100 kPa, x2 = 0): 42.7 ± 8.5 mPa·s

SMILES: C[N+](C)(C)Cc1ccccc1.[Cl-] + CCC(O)CO
- viscosity (308 K, 101.13 kPa, x1 = 0.5): 64 ± 12 mPa·s
- electrical conductivity (323 K, 101.13 kPa, x1 = 0.5): 0.53 ± 0.11 S/m

SMILES: CCCCCCCCCC(=O)[O-].CCCCCCCCCCCCCC[P+](CCCCCC)(CCCCCC)CCCCCC + CCCC(=O)O + O
- viscosity (298 K, 100 kPa, x2 = 0, x3 = 0.8754): 96 ± 10 mPa·s
- viscosity (298 K, 100 kPa, x2 = 0.02766, x3 = 0.8266): 95 ± 10 mPa·s
- viscosity (298 K, 100 kPa, x2 = 0.04982, x3 = 0.8036): 97 ± 10 mPa·s
- viscosity (298 K, 100 kPa, x2 = 0.3259, x3 = 0.4715): 100 ± 11 mPa·s
- viscosity (298 K, 100 kPa, x2 = 0.4065, x3 = 0.3936): 96 ± 11 mPa·s
- viscosity (298 K, 100 kPa, x2 = 0.4564, x3 = 0.3488): 91 ± 10 mPa·s
- viscosity (298 K, 100 kPa, x2 = 0.4978, x3 = 0.3385): 78 ± 10 mPa·s

SMILES: CCCCCCCC[N+](CCCCCCCC)(CCCCCCCC)CCCCCCCC.[Br-] + CCCCCC(=O)O
- electrical conductivity (298.1 K, 100 kPa, x1 = 0.333): 4.5e-06 ± 5e-07 S/m

SMILES: CCCCCCCC[N+](CCCCCCCC)(CCCCCCCC)CCCCCCCC.[Br-] + CCCCCCC(=O)O
- electrical conductivity (298.1 K, 100 kPa, x1 = 0.333): 4.5e-06 ± 5e-07 S/m

SMILES: CCCCCCCC[N+](CCCCCCCC)(CCCCCCCC)CCCCCCCC.[Br-] + CCCCCCCC(=O)O
- electrical conductivity (298.1 K, 100 kPa, x1 = 0.333): 4.5e-06 ± 5e-07 S/m

SMILES: CCCCCCCC[N+](CCCCCCCC)(CCCCCCCC)CCCCCCCC.[Br-] + CCCCCCCCCC(=O)O
- viscosity (293 K, 100 kPa, x1 = 0.3333): 910 ± 370 mPa·s
- viscosity (298 K, 100 kPa, x1 = 0.3333): 650 ± 260 mPa·s
- electrical conductivity (298.1 K, 100 kPa, x1 = 0.333): 4.5e-06 ± 5e-07 S/m
- viscosity (303 K, 100 kPa, x1 = 0.3333): 470 ± 190 mPa·s
- viscosity (303.15 K, 101 kPa, x2 = 0.6667): 469 ± 17 mPa·s
- viscosity (313 K, 100 kPa, x1 = 0.3333): 260 ± 110 mPa·s
- viscosity (318.15 K, 100 kPa, x1 = 0.333): 208 ± 14 mPa·s
- viscosity (323.15 K, 101 kPa, x2 = 0.6667): 174 ± 11 mPa·s
- viscosity (333 K, 100 kPa, x1 = 0.3333): 98 ± 39 mPa·s
- viscosity (353.15 K, 101 kPa, x2 = 0.6667): 56 ± 10 mPa·s
